pIC50: −log10 of the molar value. Bounds are passed on as bounds.

The test system of the assay is Hedgehog pathway signaling (Shh-induced Gli-transcription) in 10T1/2(s12) cells. In words: Gli-Luc assay, OCT-SHH-induced luciferase reporter. As to conditions: Gli-Luc response, OCT-SHH 0.3 μg/ml. The class given is cell-based, mouse. Here is the method:
Compounds to be tested are dissolved in DMSO to a concentration of 10 mM, and stored at −20° C. To activate the Hedgehog pathway in the assay cells, an octylated (lipid-modified) form of the N-terminal fragment of the Sonic Hedgehog protein (OCT-SHH) is used. This N-terminal SHH fragment is produced bacterially.
Compounds may be tested in the “Gli-Luc” assay below, using the cell line 10T(s12), wherein the cells contain a Hedgehog-responsive reporter construct utilizing Luciferase as the reporter gene. In this way, Hedgehog pathway signaling activity can be measured via the Gli-Luc response.
10t1/2(s12) cells are plated in a 96-well micro-titer plate (MTP) at 20,000 cells/well in full medium [DMEM with 10% FBS]. Then plates are placed in the incubator for incubation overnight (O/N), at 37° C. and 5% CO2. After 24 h, the medium is replaced with Luciferase-assay medium (DMEM with 0.5% FBS). Compounds are thawed and diluted in assay medium at 3:1000 (about 300-fold) resulting in a starting concentration of about 30 μM.
Subsequently, 150 μl of each 30 μM sample is added to the first wells (in triplicate). The MTP samples are then diluted at 3-fold dilutions to a total of seven wells, ultimately resulting in a regiment of seven dilutions in triplicate, for each compound. Next, the protein ligand OCT-SHH is diluted in Luciferase-assay medium and added to each well at a final concentration of 0.3 μg/ml. Plates are then returned to the incubator for further incubation O/N, at 37° C. and 5% CO2. After about 24 h, plates are removed from the incubator and the medium is aspirated/discarded. Wells are washed once with assay buffer [PBS+1 mM Mg^2+ and 1 mM Ca^2+]. Then 50 μl of assay buffer is added to each well. The Luciferase assay reagent is prepared as described by the vendor (LucLite kit from Packard), and 50 μl is added to each well. Plates are incubated at room temperature (RT) for about 30 minutes after which the signals are read, again at RT, on a Topcount (Packard).
The discovery of compounds that inhibit Shh-induced Gli-transcription exemplifies the utility of the claims in this patent.
Turning to `CC(c1nc2ccccc2c(=O)n1-c1ccc(F)cc1)N1CCN(C(=O)Nc2ccc(Cl)c(Cl)c2)CC1` (stereo not drawn) [Compound 43], the negative logarithm of the IC50 (pIC50) is greater than 5.00.
The value for `O=C(NCc1nc2ccccc2c(=O)n1-c1ccc(F)cc1)Nc1cc(Cl)nc(Cl)c1` [Compound 6] was greater than 6.30; that for `CCOOC(=O)c1cccc(NC(=O)N(C)C(C)c2nc3ccccc3c(=O)n2-c2ccc(F)cc2)c1` (stereo not drawn) [Compound 65] was greater than 5.00; that for `CC(c1nc2ccccc2c(=O)n1-c1ccc(F)cc1)N(C)C(=O)Nc1cccc(F)c1` (stereo not drawn) [Compound 55] was greater than 5.30.
The value for `CC(c1nc2ccccc2c(=O)n1-c1ccc(F)cc1)N(C)C(=O)Nc1cccc(C#N)c1` (stereo not drawn) [Compound 51] was greater than 5.30; that for `CCOC(=O)c1ccccc1NC(=O)N(C)C(C)c1nc2ccccc2c(=O)n1-c1ccc(F)cc1` (stereo not drawn) [Compound 63] was greater than 5.00.
As to `CC(c1nc2ccccc2c(=O)n1-c1ccc(F)cc1)N(C)C(=O)Nc1ccc([N+](=O)[O-])c(C(F)(F)F)c1` (stereo not drawn) [Compound 32], the pIC50 was greater than 5.30.
Regarding `CC(c1nc2ccccc2c(=O)n1-c1ccc(F)cc1)N(Cc1ccco1)C(=O)Nc1cccc(F)c1` (stereo not drawn) [Compound 31], the negative-log IC50 (pIC50) was greater than 5.00.
On to `O=C(NCc1nc2ccccc2c(=O)n1-c1ccc(F)cc1)Nc1ccc(Cl)c([N+](=O)[O-])c1` [Compound 69], for which the pIC50 is greater than 6.30.
For `CC(c1nc2ccccc2c(=O)n1-c1ccc(F)cc1)N(C)C(=O)Nc1ccc([N+](=O)[O-])cc1Cl` (stereo not drawn) [Compound 64] the value was greater than 5.00.
For `O=C(Nc1cccc(C(F)(F)F)c1)NC(c1nc2ccccc2c(=O)n1-c1ccc(F)cc1)C1CC1` (stereo not drawn) [Compound 75] the value was greater than 5.30.
For `CC(c1nc2ccccc2c(=O)n1-c1ccc(F)cc1)N(C)C(=O)Nc1ccc(SC(F)(F)F)cc1` (stereo not drawn) [Compound 60] the value was greater than 5.30; for `CCCN(C(=O)Nc1cccc(C(F)(F)F)c1)C(C)c1nc2ccccc2c(=O)n1-c1ccc(F)cc1` (stereo not drawn) [Compound 36], greater than 5.30; for `CCC(c1nc2ccccc2c(=O)[nH]1)N1CCN(C(=O)c2ccc(-c3ccccc3)cc2)C(C)C1` (stereo not drawn) [Compound 46], greater than 6.30.
Molecule `CC(c1nc2ccccc2c(=O)n1-c1ccc(F)cc1)N(C)C(=O)Nc1ccc(Cl)cc1[N+](=O)[O-]` (stereo not drawn) [Compound 66] gave a pIC50 greater than 5.00.
The value for `Cc1c(NC(=O)N(C)C(C)c2nc3ccccc3c(=O)n2-c2ccc(F)cc2)cccc1[N+](=O)[O-]` (stereo not drawn) [Compound 59] was greater than 5.30; that for `CCCN(CCC(=O)NC1CCCc2ccccc21)C(=O)c1cc(OC)cc(OC)c1` (stereo not drawn) [Compound 47] was greater than 5.30.
`CCCCCCCCC(=O)N(CCCCC)C(C)c1nc2ccccc2c(=O)n1-c1ccccc1` (stereo not drawn) [Compound 41] had a pIC50 greater than 5.00.
Take `CC(c1nc2ccccc2c(=O)n1-c1ccc(F)cc1)N(C)C(=O)Nc1cc(Cl)nc(Cl)c1` (stereo not drawn) [Compound 58]: the negative-log IC50 (pIC50) is greater than 5.30.
For `CC(c1nc2ccccc2c(=O)n1-c1ccc(F)cc1)N(C)C(=O)Nc1ccc([N+](=O)[O-])c(Cl)c1` (stereo not drawn) [Compound 62] the value was greater than 6.00; for `CCC(c1nc2ccccc2c(=O)n1-c1ccc(C)cc1)N(CCc1ccccc1)C(=O)CCCCF` (stereo not drawn) [Compound 39], greater than 5.30; for `CC(c1nc2ccccc2c(=O)n1-c1ccc(F)cc1)N(C)C(=O)Nc1ccc(Cl)c(C(F)(F)F)c1` (stereo not drawn) [Compound 61], greater than 6.00.
As to `O=C(NCc1nc2ccccc2c(=O)n1-c1ccc(F)cc1)Nc1ccc(Cl)c(C(F)(F)F)c1` [Compound 5], the pIC50 was greater than 7.00.
The value for `Cc1c(NC(=O)NCc2nc3ccccc3c(=O)n2-c2ccc(F)cc2)cccc1SC(F)(F)F` [Compound 67] was greater than 5.30; that for `O=C(NCCCc1nc2ccccc2c(=O)n1-c1ccc(F)cc1)Nc1cccc(C(F)(F)F)c1` [Compound 74] was greater than 5.30; that for `CCC(=O)N1CCN(C(CC)c2nc3ccccc3c(=O)n2-c2ccc(C)cc2)C(C)C1` (stereo not drawn) [Compound 42] was greater than 5.30.
`CCC(C)N(CCC(=O)NC1CCCc2ccccc21)C(=O)c1cccc2ccccc12` (stereo not drawn) [Compound 48] had a negative-log IC50 (pIC50) greater than 6.30.
